# According to patent US20240254087A1, “SELECTIVE, PARTIAL, AND ARRESTIN-BIASED 5-HT2A AGONISTS WITH UTILITY IN VARIOUS DISORDERS” (Saint Joseph's University, priority 2021, published 2024):
# Read-outs that look alike come from different tables or passages of the source.
# How the values were obtained:
# 5-HT2A [1] = target: T1, 5-HT2A (Homo sapiens, UniProt P28223); assay: cell-based; design: expressed in transfected cells; host or cells: HEK293T, transient; conditions: BRET, mean ± SEM; hydrochloride
# T1 sequence (P28223 whole entry): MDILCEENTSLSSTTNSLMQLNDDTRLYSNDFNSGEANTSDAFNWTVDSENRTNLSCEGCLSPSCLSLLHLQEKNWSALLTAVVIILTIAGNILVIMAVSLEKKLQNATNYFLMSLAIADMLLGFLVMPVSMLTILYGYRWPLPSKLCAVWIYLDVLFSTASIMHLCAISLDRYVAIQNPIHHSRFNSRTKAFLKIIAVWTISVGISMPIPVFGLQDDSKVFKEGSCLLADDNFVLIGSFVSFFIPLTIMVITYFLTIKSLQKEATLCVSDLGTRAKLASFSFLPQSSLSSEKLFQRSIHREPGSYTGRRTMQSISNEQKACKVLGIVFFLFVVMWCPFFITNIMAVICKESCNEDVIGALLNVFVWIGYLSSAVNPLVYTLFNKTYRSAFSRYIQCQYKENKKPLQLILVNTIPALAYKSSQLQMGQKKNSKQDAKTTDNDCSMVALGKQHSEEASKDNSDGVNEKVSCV
# 5-HT2A [2] = target: T1, 5-HT2A; assay: NanoLuc internalization assay; format: cell-based; conditions: 60 min
# 5-HT2C = target: T2, 5-HT2C (Homo sapiens, UniProt P28335); assay: BRET Gq dissociation, 5-HT2C; format: cell-based; design: expressed in transfected cells; host or cells: HEK293T, transient
# T2 sequence (P28335 33-458): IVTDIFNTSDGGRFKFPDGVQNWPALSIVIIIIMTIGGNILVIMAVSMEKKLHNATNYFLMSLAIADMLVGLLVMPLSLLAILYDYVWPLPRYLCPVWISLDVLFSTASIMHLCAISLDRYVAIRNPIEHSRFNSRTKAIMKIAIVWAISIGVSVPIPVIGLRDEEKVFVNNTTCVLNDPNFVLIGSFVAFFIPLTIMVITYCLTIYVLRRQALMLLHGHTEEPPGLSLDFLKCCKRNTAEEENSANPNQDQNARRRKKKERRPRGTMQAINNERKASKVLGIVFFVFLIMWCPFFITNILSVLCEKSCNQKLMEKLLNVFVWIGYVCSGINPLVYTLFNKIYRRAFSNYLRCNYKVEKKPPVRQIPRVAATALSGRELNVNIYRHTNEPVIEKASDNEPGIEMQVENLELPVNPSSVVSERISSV
# male C57BL/6J mice [3] = assay: Head-twitch response (HTR) in mice; format: in vivo, mouse; conditions: for ED50: Mus musculus
# Outline: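 Head twitches in male C57BL/6J mice (6-8 weeks) carrying head-mounted magnets were detected with a magnetometer coil around a 12-cm glass cylinder during the dark phase. Coil signal was low-pass filtered at 2 kHz and digitized at 20 kHz. Counts were analyzed by one-way ANOVA with Dunnett's post hoc test.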
# 5-HT2B = 5-HT2B (Homo sapiens, UniProt P41595); assay: BRET Gq dissociation, 5-HT2B; format: cell-based; design: expressed in transfected cells; host or cells: HEK293T, transient
# Chain of 5-HT2B (P41595 whole entry): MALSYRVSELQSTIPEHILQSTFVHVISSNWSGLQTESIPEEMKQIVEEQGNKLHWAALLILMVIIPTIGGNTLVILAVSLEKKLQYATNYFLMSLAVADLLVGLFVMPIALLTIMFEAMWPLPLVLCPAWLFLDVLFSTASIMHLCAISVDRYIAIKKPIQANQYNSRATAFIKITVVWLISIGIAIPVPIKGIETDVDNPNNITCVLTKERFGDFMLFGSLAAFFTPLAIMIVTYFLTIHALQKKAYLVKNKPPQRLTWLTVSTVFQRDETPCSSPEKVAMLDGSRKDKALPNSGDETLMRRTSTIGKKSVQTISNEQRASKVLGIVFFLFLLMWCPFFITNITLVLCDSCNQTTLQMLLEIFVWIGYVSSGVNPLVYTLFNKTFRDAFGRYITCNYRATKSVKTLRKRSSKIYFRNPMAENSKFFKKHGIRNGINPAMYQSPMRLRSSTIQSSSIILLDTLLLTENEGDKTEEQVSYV
# male C57BL/6J mice [4] = assay: Tolerance: DOI-induced HTR after 5 days repeated treatment; format: in vivo, mouse; conditions: 5 days SC: 25N-N1-Nap 20, DOI 10, pimavanserin 1 mg/kg/day
# Description: The mice were allowed to recover from the magnet implantation surgeries for at least 1 week prior to behavioral testing. HTR experiments were conducted in a well-lit room, and the mice were allowed to habituate to the room for at least 1 h prior to testing. Head twitches was assessed in a 12-cm diameter glass cylinder surrounded by a magnetometer coil. Coil voltage was low-pass filtered (2 kHz), amplified, and digitized (20-kHz sampling rate) using a Powerlab/8SP with LabChart v 7.3.2 (ADInstruments, Colorado Springs, CO, USA). […] HTR counts were analyzed using one-way ANOVAs. Dunnett's test was used for post hoc comparisons.
# 5-HT2A [5] = target: T1, 5-HT2A; conditions: cited from earlier work
# 5-HT2A [6] = target: T1, 5-HT2A; assay: cell-based; design: expressed in transfected cells; host or cells: HEK293T, transient; conditions: read-out: 5-HT2A β-arrestin Emax (% 5-HT), BRET, mean ± SEM
smiles,measurement,setting,value
"COc1cc(CC(C)N)c(OC)cc1I.Cl (racemic) [(±)-DOI, (±)-2,5-dimethoxy-4-iodoamphetamine hydrochloride, reference compound]",5-HT2A Gq Emax (% 5-HT),5-HT2A [1],108.2 ± 4.2 % 5-HT
same,Internalization of 5-HT2A receptors,5-HT2A [2],strong internalization
same,EC50,5-HT2C,0.832 nM
same,Emax,5-HT2C; read-out: 5-HT2C Gq Dissociation (BRET) EMAX ± SEM (%5-HT),114 ± 3.4%
same,Max HTR response during a 30-min assessment (maximum counts ÷ baseline response),male C57BL/6J mice [3],9.9-fold increase
same,ED50,"male C57BL/6J mice [3]; read-out: HTR ED50 μmol/kg (95% CI), SC, except DOI and 25D-NBOMe IP",0.8 µmol/kg
same,ED50,"male C57BL/6J mice [3]; read-out: HTR ED50 mg/kg (95% CI), SC, except DOI and 25D-NBOMe IP",0.29 mg/kg
same,EC50,5-HT2B,12.6 nM
same,Emax,5-HT2B; read-out: 5-HT2B Gq Dissociation (BRET) EMAX ± SEM (%5-HT),103 ± 2.8%
same,Ability of DOI (1 mg/kg IP) to induce the HTR after repeated daily treatment,male C57BL/6J mice [4],reduced significantly
same,Emax in a 5-HT2A-Gq calcium flux assay,5-HT2A [5],81.3%
same,Emax,5-HT2A [6],88.8 ± 1.9%
